Here are results for 16 compounds from ChEMBL document CHEMBL4342480, “Design of Dual Inhibitors of Soluble Epoxide Hydrolase and LTA4 Hydrolase” (ACS Med Chem Lett, 2020).

The target of assay [1] is T1, Bifunctional epoxide hydrolase 2 (Homo sapiens, UniProt P34913).
T1 sequence (P34913 whole entry): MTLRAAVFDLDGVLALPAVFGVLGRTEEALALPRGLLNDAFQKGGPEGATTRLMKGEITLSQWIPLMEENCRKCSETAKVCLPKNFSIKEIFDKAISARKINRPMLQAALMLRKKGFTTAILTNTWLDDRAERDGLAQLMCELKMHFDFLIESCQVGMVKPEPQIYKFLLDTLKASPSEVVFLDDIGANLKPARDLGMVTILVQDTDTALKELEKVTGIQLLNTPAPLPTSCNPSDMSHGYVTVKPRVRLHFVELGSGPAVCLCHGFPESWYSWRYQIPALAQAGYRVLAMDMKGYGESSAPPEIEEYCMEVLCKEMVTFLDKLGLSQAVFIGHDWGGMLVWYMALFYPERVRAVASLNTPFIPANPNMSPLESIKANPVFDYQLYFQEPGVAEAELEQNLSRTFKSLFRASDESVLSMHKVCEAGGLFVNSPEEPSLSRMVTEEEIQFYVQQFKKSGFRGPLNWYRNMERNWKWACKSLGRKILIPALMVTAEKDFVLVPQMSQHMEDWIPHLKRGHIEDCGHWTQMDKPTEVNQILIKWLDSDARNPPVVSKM
In words: Inhibition of full length human soluble epoxide hydrolase (1 to 555 residues) expressed in Escherichia coli BL21(DE3) using non-fluorescent PHOME as substrate preincubated for 30 mins followed by substrate addition and measured for 30 mins by fluorescence based assay.

The target of assay [2] is T2, Leukotriene A-4 hydrolase (Homo sapiens, UniProt P09960).
T2 sequence (P09960 whole entry): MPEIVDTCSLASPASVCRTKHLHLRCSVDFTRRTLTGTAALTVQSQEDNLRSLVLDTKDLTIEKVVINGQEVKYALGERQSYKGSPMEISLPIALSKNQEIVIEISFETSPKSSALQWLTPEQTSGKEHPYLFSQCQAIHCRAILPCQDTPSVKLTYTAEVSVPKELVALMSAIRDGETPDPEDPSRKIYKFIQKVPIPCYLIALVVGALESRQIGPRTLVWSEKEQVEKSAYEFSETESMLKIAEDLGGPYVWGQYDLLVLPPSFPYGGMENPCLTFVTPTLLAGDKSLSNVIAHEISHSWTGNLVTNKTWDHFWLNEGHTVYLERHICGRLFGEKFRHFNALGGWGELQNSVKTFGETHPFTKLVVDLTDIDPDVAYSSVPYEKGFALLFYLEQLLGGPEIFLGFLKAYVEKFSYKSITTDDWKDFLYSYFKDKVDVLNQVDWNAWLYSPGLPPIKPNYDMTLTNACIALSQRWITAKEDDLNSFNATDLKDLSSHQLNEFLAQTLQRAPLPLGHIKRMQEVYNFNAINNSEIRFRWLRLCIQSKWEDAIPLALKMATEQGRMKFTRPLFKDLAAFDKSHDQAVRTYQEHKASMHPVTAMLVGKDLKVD
In words: Inhibition of (His)6 tagged human recombinant LTA4H expressed in Escherichia coli BL21(DE3) using non-fluorescent L-arginine-7-amino-4-methylcoumarine as substrate preincubated for 30 mins followed by substrate addition and measured for 30 mins by fluorescence based assay.

As to `O=C(Cc1ccc(Oc2nc3ccccc3s2)cc1F)NCc1c[nH]c2cc(F)ccc12`, the IC50 (as a rule, the midpoint of a concentration-inhibition curve) in assay [1] was 5600 nM; in assay [2] it was 900 nM. For `O=C(CCc1ccc(OCc2ccncc2)cc1)NCCc1ccc(F)cc1`, in that order: 800 nM and above 30000 nM.

Take `O=C(Cc1ccc(Oc2nc3cc(C(F)(F)F)ccc3s2)cc1F)NCCc1ccc(F)cc1`: the values for the IC50 in assay [1] and in assay [2] were 1700 nM and above 30000 nM, respectively. `O=C(Cc1ccc(Oc2ccccc2)cc1)NCCc1ccc(Cl)cc1`: in assay [1], the concentration for half-maximal inhibition (IC50) is 1800 nM. As to `Fc1ccc(CCNCc2ccc(Oc3ccccc3)cc2)cc1`, the results for the IC50 in assay [1] and in assay [2] were 3600 nM and 200 nM, respectively. The like results for `O=C(Cc1ccc(Oc2nc3ccc(F)cc3s2)cc1F)NCCc1ccc(F)cc1` were, in that order, 27500 nM and above 30000 nM.

`O=C(Cc1ccc(Oc2nc3ccccc3s2)cc1)NCCc1ccc(F)cc1`: the IC50 in assay [1] was determined as 130 nM; in assay [2], 240 nM.

With `O=C(Cc1ccc(Oc2ccccc2)cc1)NCCc1ccc(OC(F)(F)F)cc1`, the IC50 in assay [1] was found to be 500 nM. The same measure, in the same setting: the figure for `O=C(Cc1ccc(Oc2ccccc2)cc1)NCCc1ccc(F)cc1` is 900 nM. On the same count and under the same terms, the figure for `O=C(Cc1ccc(Oc2ccccc2)cc1)NCCc1ccc(C(F)(F)F)cc1` is 500 nM. Regarding `O=C(Cc1ccc(Oc2nc3cc(F)ccc3s2)cc1F)NCCc1ccc(F)cc1`, the results for the IC50 in assay [1] and in assay [2] were 22500 nM and above 30000 nM, respectively. Turning to `O=C(Cc1ccc(Oc2nc3ccccc3s2)cc1F)NCCc1ccccc1F`, the IC50 stood at 600 nM in assay [1] and 3800 nM in assay [2]. For `COC(=O)c1ccc(CNC(=O)Cc2ccc(Oc3nc4ccccc4s3)cc2F)cc1`, in that order: 100 nM and above 30000 nM. Turning to `O=C(Cc1ccc(Oc2nc3ccc(C(F)(F)F)cc3s2)cc1F)NCCc1ccc(F)cc1`, the IC50 is 20100 nM in assay [1] and above 30000 nM in assay [2]. Take `O=C(Cc1ccc(Oc2nc3ccccc3s2)cc1F)NCCc1cccc(F)c1`: the IC50 in assay [1] came to 400 nM. Consider `Cc1ccc(CCNC(=O)Cc2ccc(Oc3ccccc3)cc2)cc1`, for which the IC50 is 1100 nM in assay [1] and above 30000 nM in assay [2].
